Experimental data: US5607922A, “1,5-anhydrohexitol nucleoside analogues” (Stichting Rega VZW, priority 1992, dated 1997)
Converted amounts (≈) assume the structure as drawn. Where two headings read alike, the source gives them in different places.

Legend:
[1] = tested on: Vesicular stomatitis virus; assay: microbe, parasite or virus in culture; format: cell-based; conditions: E6SM, read-out: Minimum inhibitory concentration Vesicular stomatitis virus
vaccinia virus (VV) = assay: microbe, parasite or virus in culture; format: cell-based; conditions: Orthopoxvirus vaccinia, E6SM
[2] = tested on: herpes simplex virus type 1 (HSV-1) (KOS); assay: microbe, parasite or virus in culture; format: cell-based; conditions: Human alphaherpesvirus 1, E6SM
in vitro = conditions: human, e6 sm cells, Minimum cytotoxic concentration
[3] = tested on: herpes simplex virus 2 (HSV-2) (G); assay: microbe, parasite or virus in culture; format: cell-based; conditions: Human alphaherpesvirus 2, E6SM
herpes simplex (1 and 2) = assay: Anti-herpes simplex (1 and 2) activity, statement in words; format: cell-based, herpes simplex virus
herpes viruses = conditions: in words; literature; cited from earlier work
[4] = read-out: Minimum inhibiting concentration ED50 VV
[5] = read-out: Minimum inhibitory concentration Vaccinia virus
[6] = Table I, E6 SM cells, required to reduce virus-induced cytopathogenesis by 50%, read-out: Minimum inhibiting concentration ED50 HSV-1 (KOS)
[7] = read-out: Minimum inhibitory concentration Herpes simplex virus-1 (KOS)
[8] = Table III, required to cause a microscopically detectable alteration of normal cell morphology
[9] = Table I, E6 SM cells, required to reduce virus-induced cytopathogenesis by 50%, read-out: Minimum inhibiting concentration ED50 HSV-2 (G)
[10] = read-out: Minimum inhibitory concentration Herpes simplex virus-2 (G)

SMILES | EC50 [1] [µg/mL] | EC50 (vaccinia virus (VV); [4]) [µg/mL] | EC50 (vaccinia virus (VV); [5]) [µg/mL] | EC50 [2, 6] [µg/mL] | EC50 [2, 7] [µg/mL] | MCC (in vitro) [µg/mL] | MCC (in vitro; [8]) [µg/mL] | EC50 [3, 9] [µg/mL] | EC50 [3, 10] [µg/mL] | anti-herpes simplex (1 and 2) activity (herpes simplex (1 and 2)) | anti-viral activity against herpes viruses (herpes viruses)
Nc1nccc2c1ncn2[C@@H]1C[C@H](CO)[C@@H](O)[C@H]1O (relative stereo) [C-c^3 Ado, carbocyl 3-deaza adenosine] | 0.2 (≈ 0.757 µM) | 0.7 (≈ 2.65 µM) | 0.2 (≈ 0.757 µM) | > 400 | > 200 | > 400 | ≥ 200 | 40 (≈ 151 µM) | > 200 |  | 
Nc1nc(O)c2ncn([C@@H]3CO[C@H](CO)[C@@H](O)C3)c2n1 [Compound 13, 1,5-Anhydro-2-(guanin-9-yl)-2,3-dideoxy-D-arabinohexitol] |  | 2 (≈ 7.11 µM) |  | 0.2 (≈ 0.711 µM) |  | > 400 |  | 0.1 (≈ 0.356 µM) |  |  | 
O=c1[nH]c(=O)n([C@@H]2CO[C@H](CO)[C@@H](O)C2)cc1I [Compound 18, 1,5-Anhydro-2,3-dideoxy-2-(5-iodouracil-1-yl)-D-arabino-hexitol] |  | 150 (≈ 407 µM) |  | 0.07 (≈ 0.19 µM) |  | > 400 |  | 0.07 (≈ 0.19 µM) |  | especially advantageous anti-herpes simplex (1 and 2) activity | 
O=c1[nH]c(=O)n([C@H]2C[C@H](O)[C@@H](CO)O2)cc1/C=C/Br [BVDU, E-5-(2-bromovinyl)-2'-deoxyuridine] | > 200 | 0.2 (≈ 0.6 µM) | 0.7 (≈ 2.1 µM) |  | 0.004 (≈ 0.012 µM) | > 400 | ≥ 200 | 10 (≈ 30 µM) | > 200 |  | dependent on a virus-specific thymidine kinase
Nc1ncnc2c1ncn2[C@@H]1CO[C@H](CO)[C@@H](O)C1 [Compound 10, 1,5-Anhydro-2-(adenin-9-yl) 2,3-dideoxy-D-arabinohexitol] |  | 20 (≈ 75.4 µM) |  | 7 (≈ 26.4 µM) |  | > 400 |  | 7 (≈ 26.4 µM) |  |  | 
Nc1ncnc2c1ncn2C[C@H](O)CO [(S)-DHPA, (S)-9-(2,3-dihydroxypropyl)-adenine] | 20 (≈ 95.6 µM) |  | 20 (≈ 95.6 µM) | 70 (≈ 335 µM) | > 200 | > 400 | ≥ 200 | 300 (≈ 1430 µM) | > 200 |  | 
Cc1cn([C@@H]2CO[C@H](CO)[C@@H](O)C2)c(=O)[nH]c1=O [Compound 17, 1,5-Anhydro-2,3-dideoxy2-(thymin-1-yl)-D-arabinohexitol] |  | > 200 |  | 40 (≈ 156 µM) |  | > 400 |  | 150 (≈ 585 µM) |  |  | 
NC(=O)c1ncn(C2O[C@H](CO)[C@@H](O)[C@H]2O)n1 (stereo partly drawn) [Ribavirin, 1-ribofuranosyl-3-carbamoyl-1,2,4-triazol] | 20 (≈ 81.9 µM) |  | 70 (≈ 287 µM) | 70 (≈ 287 µM) | 200 (≈ 819 µM) | > 400 | > 400 | 70 (≈ 287 µM) | > 400 |  | 
O=c1[nH]c(=O)n([C@H]2C[C@H](O)[C@@H](CO)O2)cc1I [IDU, 5-iodo-2'-deoxyuridine] |  | 0.2 (≈ 0.565 µM) |  | 0.2 (≈ 0.565 µM) |  | > 400 |  | 0.2 (≈ 0.565 µM) |  |  | dependent on a virus-specific thymidine kinase
CCc1cn([C@@H]2CO[C@H](CO)[C@@H](O)C2)c(=O)[nH]c1=O [Compound 23, 1,5-Anhydro-2,3-dideoxy-2-(5-ethyluracil-1-yl)-D-arabinohexitol] | > 200 |  | > 200 |  | < 0.04 |  | > 200 |  | 0.2 (≈ 0.74 µM) | especially advantageous anti-herpes simplex (1 and 2) activity | 
Nc1ccn([C@@H]2CO[C@H](CO)[C@@H](O)C2)c(=O)n1 [Compound 20, 1,5-Anhydro-2-(cytosin-1-yl)-2,3-dideoxy-D-arabinohexitol] |  | 0.7 (≈ 2.9 µM) |  | 0.7 (≈ 2.9 µM) |  | > 400 |  | 0.04 (≈ 0.166 µM) |  |  | 
